molecular target: T1, Aurora -A (Homo sapiens, UniProt O14965); assay: Kinase electrophoretic mobility shift assay, Aurora -A; type: biochemical; conditions: compounds tested at 10 μM, average of n = 2, ATP at apparent Km; read-out: Aurora -A activity (percent inhibition)
T1 sequence (O14965 1-403): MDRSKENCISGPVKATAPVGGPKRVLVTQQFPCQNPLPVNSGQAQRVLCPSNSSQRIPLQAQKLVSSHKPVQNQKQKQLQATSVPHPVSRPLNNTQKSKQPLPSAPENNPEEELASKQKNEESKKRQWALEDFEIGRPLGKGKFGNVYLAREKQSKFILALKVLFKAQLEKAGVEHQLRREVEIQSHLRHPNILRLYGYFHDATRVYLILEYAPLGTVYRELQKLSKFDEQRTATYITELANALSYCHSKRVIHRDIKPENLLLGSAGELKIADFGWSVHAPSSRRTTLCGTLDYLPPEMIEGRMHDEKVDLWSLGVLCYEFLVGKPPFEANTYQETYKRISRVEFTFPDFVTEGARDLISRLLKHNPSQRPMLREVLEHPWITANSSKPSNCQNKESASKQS
Protocol: (§1) Kinase activity is measured in vitro using electrophoretic mobility shift assay. The kinase reactions are assembled in 384 well plates in total volume of 25 μL. The reactions comprise: purified recombinant kinase enzyme, test compound, ATP (at apparent Km for each kinase), and fluorescently labeled peptide substrate. The reaction buffer composed of: 100 mM HEPES, pH7.5; 5 mM MgCl2; 1 mM DTT; 0.1% bovine serum albumin; 0.01% Triton X-100, and 1% DMSO (from compound). The reactions were incubated at room temperature for indicated time and quenched by addition of 45 μL of termination buffer (100 mM HEPES pH7.5; 0.01% Triton X-100; 30 mM EDTA). Substrate and product peptides in each sample were electrophoretically separated and detected using 12 channel LabChip3000® microfluidic capillary electrophoresis instrument (Caliper Life Sciences). The change in the relative fluorescence intensities of substrate and product peaks (reflecting enzyme activity) was measured. Capillary electrophoregramms were analyzed using HTS Well Analyzer software (Caliper Life Sciences). The kinase activity in each sample was determined as “product to sum” ratio (PSR):P/(S+P), where P is the peak height of the product peptide and S is the peak height of the substrate peptide. Negative control samples (0%-inhibition in the absence of inhibitor) and positive control samples (100%-inhibition, in the presence of 20 mM EDTA) were assembled in replicates of four and were used to calculate %-inhibition values for each compound at each concentration. Percent inhibition (Pinh) was determined using following equation: Pinh=(PSR0%−PSRinh)/(PSR0%−PSR100%)*100, where PSRinh is the product-sum ratio in the presence of inhibitor, PSR0% is the average product-sum ration in the absence of inhibitor and PSR100% is the average product-sum ratio in 100%-inhibition control samples. The IC50 values of reference inhibitors were determined by fitting the inhibition curves by a 4 parameter sigmoid dose-response model using XLfit 4 software (IDBS).

Row | inhibition at 10 µM [%] | SMILES
1 | < 50 | CCC1Cn2c(cc3cnc(N[C@H]4CC[C@H](O)CC4)nc32)C(=O)N1 (some centres unmarked) [Compd 5]
2 | < 50 | Cc1ccccc1-c1c2n(c3nc(Nc4ccc(N5CCOCC5)cc4)ncc13)CCNC2=O [Compd 1]
3 | > 90 | O=C1NCC2(CCCC2)n2c1cc1cnc(N[C@H]3CC[C@H](O)CC3)nc12 [Compd 7]

molecular target: T2, DYRK3 (Homo sapiens, UniProt O43781); assay: Kinase electrophoretic mobility shift assay, DYRK3; type: biochemical; conditions: compounds tested at 10 μM, average of n = 2, ATP at apparent Km; read-out: DYRK3 activity (percent inhibition)
T2 sequence (O43781 1-588): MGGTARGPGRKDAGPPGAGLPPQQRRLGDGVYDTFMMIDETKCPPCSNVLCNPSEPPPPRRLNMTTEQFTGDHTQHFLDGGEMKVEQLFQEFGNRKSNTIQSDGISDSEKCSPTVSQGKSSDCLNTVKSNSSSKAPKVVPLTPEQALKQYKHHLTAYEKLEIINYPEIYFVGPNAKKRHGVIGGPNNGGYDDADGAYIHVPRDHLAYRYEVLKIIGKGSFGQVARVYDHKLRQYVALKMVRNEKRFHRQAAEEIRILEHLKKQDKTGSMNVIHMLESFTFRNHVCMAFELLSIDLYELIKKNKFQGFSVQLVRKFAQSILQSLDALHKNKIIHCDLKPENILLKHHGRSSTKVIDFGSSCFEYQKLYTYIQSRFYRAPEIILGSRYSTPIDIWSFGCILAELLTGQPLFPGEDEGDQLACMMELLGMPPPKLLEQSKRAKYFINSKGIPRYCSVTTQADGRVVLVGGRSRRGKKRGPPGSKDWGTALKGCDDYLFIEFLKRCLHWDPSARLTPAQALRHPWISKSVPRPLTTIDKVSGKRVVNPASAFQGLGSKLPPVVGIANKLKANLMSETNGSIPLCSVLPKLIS
Protocol: as §1

Row | inhibition at 10 µM [%] | SMILES
4 | 71 to 90 | CCC1Cn2c(cc3cnc(N[C@H]4CC[C@H](O)CC4)nc32)C(=O)N1 (some centres unmarked) [Compd 5]
5 | < 50 | Cc1ccccc1-c1c2n(c3nc(Nc4ccc(N5CCOCC5)cc4)ncc13)CCNC2=O [Compd 1]
6 | > 90 | O=C1NCC2(CCCC2)n2c1cc1cnc(N[C@H]3CC[C@H](O)CC3)nc12 [Compd 7]

molecular target: FMS (Homo sapiens, UniProt P07333); assay: Kinase electrophoretic mobility shift assay, FMS; type: biochemical; conditions: compounds tested at 10 μM, average of n = 2, ATP at apparent Km; read-out: FMS activity (percent inhibition)
Sequence (P07333 20-972, species assumed): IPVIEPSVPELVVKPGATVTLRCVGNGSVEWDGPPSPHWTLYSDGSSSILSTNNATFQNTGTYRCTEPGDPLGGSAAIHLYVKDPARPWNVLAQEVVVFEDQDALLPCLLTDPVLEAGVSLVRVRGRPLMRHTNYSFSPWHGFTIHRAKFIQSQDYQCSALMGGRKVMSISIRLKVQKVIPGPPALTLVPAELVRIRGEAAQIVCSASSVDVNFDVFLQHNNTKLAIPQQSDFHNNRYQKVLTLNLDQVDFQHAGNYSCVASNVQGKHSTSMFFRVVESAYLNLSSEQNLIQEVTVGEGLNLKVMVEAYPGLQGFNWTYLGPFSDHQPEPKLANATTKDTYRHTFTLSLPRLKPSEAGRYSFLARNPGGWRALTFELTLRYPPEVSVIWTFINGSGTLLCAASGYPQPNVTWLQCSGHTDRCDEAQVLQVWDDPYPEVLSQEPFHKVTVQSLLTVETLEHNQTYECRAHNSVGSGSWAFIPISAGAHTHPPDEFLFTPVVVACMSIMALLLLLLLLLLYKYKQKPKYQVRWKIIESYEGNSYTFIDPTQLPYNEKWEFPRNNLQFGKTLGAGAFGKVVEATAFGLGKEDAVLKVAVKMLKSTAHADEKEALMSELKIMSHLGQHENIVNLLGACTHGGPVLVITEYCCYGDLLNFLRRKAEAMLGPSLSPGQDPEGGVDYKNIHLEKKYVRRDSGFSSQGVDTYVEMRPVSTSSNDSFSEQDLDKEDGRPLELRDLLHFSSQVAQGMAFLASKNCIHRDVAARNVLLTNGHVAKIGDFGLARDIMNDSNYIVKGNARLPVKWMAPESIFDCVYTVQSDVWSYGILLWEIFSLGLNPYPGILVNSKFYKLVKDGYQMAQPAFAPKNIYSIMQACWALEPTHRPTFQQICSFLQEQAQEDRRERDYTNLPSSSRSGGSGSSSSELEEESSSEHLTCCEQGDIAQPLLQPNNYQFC
Protocol: as §1

Row | inhibition at 10 µM [%] | SMILES
7 | 71 to 90 | CCC1Cn2c(cc3cnc(N[C@H]4CC[C@H](O)CC4)nc32)C(=O)N1 (some centres unmarked) [Compd 5]
8 | < 50 | Cc1ccccc1-c1c2n(c3nc(Nc4ccc(N5CCOCC5)cc4)ncc13)CCNC2=O [Compd 1]
9 | 71 to 90 | O=C1NCC2(CCCC2)n2c1cc1cnc(N[C@H]3CC[C@H](O)CC3)nc12 [Compd 7]

molecular target: GSK-3 beta (Homo sapiens, UniProt P49841); assay: Kinase electrophoretic mobility shift assay, GSK-3 beta; type: biochemical; conditions: compounds tested at 10 μM, average of n = 2, ATP at apparent Km; read-out: GSK-3 beta activity (percent inhibition)
Sequence (P49841 whole entry, species assumed): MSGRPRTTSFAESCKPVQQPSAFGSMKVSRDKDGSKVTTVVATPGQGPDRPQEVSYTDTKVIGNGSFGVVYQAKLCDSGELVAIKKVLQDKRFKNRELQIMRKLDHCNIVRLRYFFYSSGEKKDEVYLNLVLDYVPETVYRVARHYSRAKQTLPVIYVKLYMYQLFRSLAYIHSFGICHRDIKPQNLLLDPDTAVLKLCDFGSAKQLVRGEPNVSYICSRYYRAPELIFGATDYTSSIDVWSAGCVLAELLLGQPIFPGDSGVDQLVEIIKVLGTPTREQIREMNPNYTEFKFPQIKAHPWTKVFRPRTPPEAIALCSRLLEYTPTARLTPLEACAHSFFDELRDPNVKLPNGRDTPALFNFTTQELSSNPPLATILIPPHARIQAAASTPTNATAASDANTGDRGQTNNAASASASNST
Protocol: as §1

Row | inhibition at 10 µM [%] | SMILES
10 | > 90 | CCC1Cn2c(cc3cnc(N[C@H]4CC[C@H](O)CC4)nc32)C(=O)N1 (some centres unmarked) [Compd 5]
11 | < 50 | Cc1ccccc1-c1c2n(c3nc(Nc4ccc(N5CCOCC5)cc4)ncc13)CCNC2=O [Compd 1]
12 | > 90 | O=C1NCC2(CCCC2)n2c1cc1cnc(N[C@H]3CC[C@H](O)CC3)nc12 [Compd 7]

molecular target: T3, HIPK4 (Homo sapiens, UniProt Q8NE63); assay: Kinase electrophoretic mobility shift assay, HIPK4; type: biochemical; conditions: compounds tested at 10 μM, average of n = 2, ATP at apparent Km; read-out: HIPK4 activity (percent inhibition)
T3 sequence (Q8NE63 1-616): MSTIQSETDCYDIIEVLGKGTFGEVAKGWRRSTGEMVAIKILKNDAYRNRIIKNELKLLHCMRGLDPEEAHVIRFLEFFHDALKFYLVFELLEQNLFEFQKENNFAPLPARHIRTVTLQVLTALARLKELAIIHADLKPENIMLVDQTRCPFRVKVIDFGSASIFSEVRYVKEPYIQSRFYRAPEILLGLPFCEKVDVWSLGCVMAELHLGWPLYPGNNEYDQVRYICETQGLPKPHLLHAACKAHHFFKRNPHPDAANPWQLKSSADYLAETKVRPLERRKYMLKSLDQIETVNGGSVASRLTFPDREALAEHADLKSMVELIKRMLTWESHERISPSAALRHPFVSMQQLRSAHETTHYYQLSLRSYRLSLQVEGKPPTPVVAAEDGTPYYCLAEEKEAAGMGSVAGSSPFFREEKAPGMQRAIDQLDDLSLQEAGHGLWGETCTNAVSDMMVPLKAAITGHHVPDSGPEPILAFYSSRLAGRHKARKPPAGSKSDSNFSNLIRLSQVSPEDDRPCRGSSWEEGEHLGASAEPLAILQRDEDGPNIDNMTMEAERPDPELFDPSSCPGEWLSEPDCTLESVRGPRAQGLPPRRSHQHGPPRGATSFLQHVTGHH
Protocol: as §1

Row | inhibition at 10 µM [%] | SMILES
13 | > 90 | CCC1Cn2c(cc3cnc(N[C@H]4CC[C@H](O)CC4)nc32)C(=O)N1 (some centres unmarked) [Compd 5]
14 | < 50 | Cc1ccccc1-c1c2n(c3nc(Nc4ccc(N5CCOCC5)cc4)ncc13)CCNC2=O [Compd 1]
15 | > 90 | O=C1NCC2(CCCC2)n2c1cc1cnc(N[C@H]3CC[C@H](O)CC3)nc12 [Compd 7]

molecular target: JNK2 (Homo sapiens, UniProt P45984); assay: Kinase electrophoretic mobility shift assay, JNK2; type: biochemical; conditions: compounds tested at 10 μM, average of n = 2, ATP at apparent Km; read-out: JNK2 activity (percent inhibition)
Sequence (P45984 whole entry, species assumed): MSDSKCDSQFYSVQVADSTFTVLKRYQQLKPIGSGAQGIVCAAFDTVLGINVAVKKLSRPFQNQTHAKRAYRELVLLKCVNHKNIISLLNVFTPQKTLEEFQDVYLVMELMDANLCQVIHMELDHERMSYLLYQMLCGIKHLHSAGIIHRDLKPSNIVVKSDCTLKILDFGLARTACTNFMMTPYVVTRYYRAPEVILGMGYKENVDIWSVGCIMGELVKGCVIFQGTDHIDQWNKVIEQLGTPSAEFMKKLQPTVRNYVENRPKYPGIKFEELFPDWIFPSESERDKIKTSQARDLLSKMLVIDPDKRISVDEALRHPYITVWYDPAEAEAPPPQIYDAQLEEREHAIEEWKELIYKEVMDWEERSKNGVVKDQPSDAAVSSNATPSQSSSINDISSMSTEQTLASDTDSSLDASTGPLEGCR
Protocol: as §1

Row | inhibition at 10 µM [%] | SMILES
16 | > 90 | CCC1Cn2c(cc3cnc(N[C@H]4CC[C@H](O)CC4)nc32)C(=O)N1 (some centres unmarked) [Compd 5]
17 | < 50 | Cc1ccccc1-c1c2n(c3nc(Nc4ccc(N5CCOCC5)cc4)ncc13)CCNC2=O [Compd 1]
18 | > 90 | O=C1NCC2(CCCC2)n2c1cc1cnc(N[C@H]3CC[C@H](O)CC3)nc12 [Compd 7]

molecular target: MAPK3 (Homo sapiens, UniProt P27361); assay: Kinase electrophoretic mobility shift assay, MAPK3; type: biochemical; conditions: compounds tested at 10 μM, average of n = 2, ATP at apparent Km; read-out: MAPK3 activity (percent inhibition)
Sequence (P27361 whole entry): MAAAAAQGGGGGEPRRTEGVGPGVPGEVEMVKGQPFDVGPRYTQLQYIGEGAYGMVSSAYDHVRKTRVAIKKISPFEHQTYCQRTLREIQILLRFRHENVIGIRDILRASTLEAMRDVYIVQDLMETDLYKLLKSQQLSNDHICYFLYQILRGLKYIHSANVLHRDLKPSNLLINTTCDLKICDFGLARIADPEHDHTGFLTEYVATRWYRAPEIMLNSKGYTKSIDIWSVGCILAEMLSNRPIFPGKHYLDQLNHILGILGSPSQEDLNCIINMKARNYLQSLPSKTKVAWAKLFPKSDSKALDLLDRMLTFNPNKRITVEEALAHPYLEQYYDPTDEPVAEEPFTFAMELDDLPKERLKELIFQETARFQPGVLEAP
Protocol: as §1

Row | inhibition at 10 µM [%] | SMILES
19 | 71 to 90 | CCC1Cn2c(cc3cnc(N[C@H]4CC[C@H](O)CC4)nc32)C(=O)N1 (some centres unmarked) [Compd 5]
20 | < 50 | Cc1ccccc1-c1c2n(c3nc(Nc4ccc(N5CCOCC5)cc4)ncc13)CCNC2=O [Compd 1]
21 | > 90 | O=C1NCC2(CCCC2)n2c1cc1cnc(N[C@H]3CC[C@H](O)CC3)nc12 [Compd 7]

molecular target: MNK2 (Homo sapiens, UniProt Q9HBH9); assay: Kinase electrophoretic mobility shift assay, MNK2; type: biochemical; conditions: compounds tested at 10 μM, average of n = 2, ATP at apparent Km; read-out: MNK2 activity (percent inhibition)
Sequence (Q9HBH9 whole entry, species assumed): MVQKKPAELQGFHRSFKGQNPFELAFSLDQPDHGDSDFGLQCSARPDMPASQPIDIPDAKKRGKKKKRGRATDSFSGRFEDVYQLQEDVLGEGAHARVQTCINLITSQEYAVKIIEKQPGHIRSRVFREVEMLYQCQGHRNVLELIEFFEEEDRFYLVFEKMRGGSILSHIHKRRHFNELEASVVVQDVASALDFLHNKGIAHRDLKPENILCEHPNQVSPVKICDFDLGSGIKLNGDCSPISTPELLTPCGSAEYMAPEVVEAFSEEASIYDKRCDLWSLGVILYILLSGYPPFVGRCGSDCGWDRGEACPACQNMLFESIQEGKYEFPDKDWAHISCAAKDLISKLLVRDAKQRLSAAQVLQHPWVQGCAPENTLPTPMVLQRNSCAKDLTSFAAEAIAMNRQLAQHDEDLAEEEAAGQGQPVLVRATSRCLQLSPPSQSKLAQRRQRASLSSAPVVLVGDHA
Protocol: as §1

Row | inhibition at 10 µM [%] | SMILES
22 | 50 to 70 | CCC1Cn2c(cc3cnc(N[C@H]4CC[C@H](O)CC4)nc32)C(=O)N1 (some centres unmarked) [Compd 5]
23 | < 50 | Cc1ccccc1-c1c2n(c3nc(Nc4ccc(N5CCOCC5)cc4)ncc13)CCNC2=O [Compd 1]
24 | 71 to 90 | O=C1NCC2(CCCC2)n2c1cc1cnc(N[C@H]3CC[C@H](O)CC3)nc12 [Compd 7]

molecular target: P38 beta (Homo sapiens, UniProt Q15759); assay: Kinase electrophoretic mobility shift assay, P38 beta; type: biochemical; conditions: compounds tested at 10 μM, average of n = 2, ATP at apparent Km; read-out: P38 beta activity (percent inhibition)
Sequence (Q15759 whole entry): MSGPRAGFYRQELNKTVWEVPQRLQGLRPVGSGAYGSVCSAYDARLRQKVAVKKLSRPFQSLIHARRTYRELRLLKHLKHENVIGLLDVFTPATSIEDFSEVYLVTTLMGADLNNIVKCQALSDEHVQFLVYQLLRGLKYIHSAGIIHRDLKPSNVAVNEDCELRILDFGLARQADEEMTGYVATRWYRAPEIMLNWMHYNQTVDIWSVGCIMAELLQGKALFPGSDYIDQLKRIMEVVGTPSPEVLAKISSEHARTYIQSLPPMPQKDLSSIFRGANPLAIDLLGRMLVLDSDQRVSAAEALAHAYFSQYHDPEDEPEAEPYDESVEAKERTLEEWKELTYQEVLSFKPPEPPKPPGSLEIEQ
Protocol: as §1

Row | inhibition at 10 µM [%] | SMILES
25 | 50 to 70 | CCC1Cn2c(cc3cnc(N[C@H]4CC[C@H](O)CC4)nc32)C(=O)N1 (some centres unmarked) [Compd 5]
26 | < 50 | Cc1ccccc1-c1c2n(c3nc(Nc4ccc(N5CCOCC5)cc4)ncc13)CCNC2=O [Compd 1]
27 | 71 to 90 | O=C1NCC2(CCCC2)n2c1cc1cnc(N[C@H]3CC[C@H](O)CC3)nc12 [Compd 7]

test system: treatment-refractory metastatic colorectal cancer; assay: not given; conditions: single agent, patients with treatment-refractory metastatic colorectal cancer, phase III; cited from earlier work

Row | SMILES | disease progression | overall survival
28 | CNC(=O)c1cc(Oc2ccc(NC(=O)Nc3ccc(Cl)c(C(F)(F)F)c3)c(F)c2)ccn1 [regorafenib] | delayed disease progression | significantly improved overall survival
